Laboratory results as given in patent publication US20250249010A1, “METHODS FOR TREATING PRIMARY MEMBRANOUS NEPHROPATHY” (BEIGENE SWITZERLAND GMBH, priority 2022, published 2025).

Key:
CYP3A4 = assay: Clinical drug-drug interaction study (Study BGB-3111-108), CYP3A4; assay type: in vivo; conditions: clinical drug-drug interaction study BGB-3111-108
CYP2C19 = assay: Clinical drug-drug interaction study (Study BGB-3111-108), CYP2C19; assay type: in vivo; conditions: clinical drug-drug interaction study BGB-3111-108
[1] = test system: patients with B-cell malignancies; conditions: 320 mg per day (160 mg twice a day); cited from earlier work

- CYP3A4 induction (CYP3A4): mild inducer
- CYP2C19 induction (CYP2C19): mild inducer
Structure (SMILES): C=CC(=O)N1CCC([C@@H]2CCNc3c(C(N)=O)c(-c4ccc(Oc5ccccc5)cc4)nn32)CC1 [zanubrutinib, (S)-7-(1-acryloylpiperidin-4-yl)-2-(4-phenoxyphenyl)-4,5,6,7-tetrahydropyrazolo[1,5-a]pyrimidine-3-carboxamide]
- efficacy in patients with B-cell malignancies [1]: efficacious
- tolerability in patients with B-cell malignancies [1]: well tolerated
